Test results as given in patent US6379658B1, “Human sweat malodor counteractant composition and process for using same” (International Flavors & Fragrances Inc., priority 1999, dated 2002).

Assay: Human sweat malodor neutralization (jar method), headspace rated by trained panel using Magnitude Estimation
Settings: single fragrance ingredient; % Reduction=100×[1-(malodor intensity/total intensity)]
Procedure: Malodor neutralization is evaluated by placing a specified amount of malodor into an uncapped, 1 ounce wide-mouth jar. This jar is placed into an 8 ounce wide-mouth jar containing a specified amount of test material or finished fragrance. The quantities of malodor and fragrance are dependent on the specific malodor model used. The 8 ounce jar is capped and allowed to equilibrate. The panelists then rate the headspace for (1) total intensity, (2) malodor intensity and (3) overall like/dislike (hedonics). They are provided with an identified sample of malodor as a reference. Each group of samples presented to the panel contains an unidentified positive control (a fragrance material with no malodor), two unidentified negative controls (malodor with no fragrance) and up to twelve test samples (each fragrance is presented in duplicate or triplicate).
It is to be noted that evaluations are carried out by panelists who have been extensively screened for their olfactory acuity and trained in the method of evaluation (Magnitude Estimation). Panelist performance is constantly monitored and reviewed.
All samples are coded with random 5-digit numbers. Panelists are instructed to select samples from the test set and evaluate them in a random order.
The results of these experiments are expressed in terms of malodor reduction (neutralization), change in overall intensity and improvement in hedonics.
The percent malodor reduction is calculated as:
% Reduction=100×[1-(malodor intensity/total intensity)]
or shown thusly: [formula]
wherein wherein RMOL represents malodor reduction; iMO is malodor intensity; and iT represents total intensity.
The following protocol has been developed to determine the level of odor neutralization:
1. A predetermined quantity of the malodor model is measured with a micropipette into an uncapped 1 oz. wide-mouth jar. This jar is subsequently placed into an 8 oz. wide-mouth jar containing a predetermined quantity of the test material. The 8 oz. jar is capped and allowed to equilibrate prior to evaluation;
2. […] Each judge is also presented with an identified sample of the malodor in order to reinforce the malodor discrimination task;
3. Each of the judges rate the headspace for (a) total odor intensity, (b) malodor intensity and (c) the overall like/dislike (hedonics) of the sample; and […]

Point of comparison: `CC(=O)C(C)=CC1C(C)=CCCC1(C)C` (centres unmarked) [γ-Methyl ionone, 4-(2,6,6-trimethyl-2-cyclohexen-1-yl)-3-methyl-3-buten-2-one], “% Human Sweat Malodor Coverage” value 93% reduction. Against it:
- CC(=O)CCc1ccccc1 [Benzyl acetone, benzyl acetone] — higher, 96% reduction
- CC(=O)c1ccc2ccccc2c1 [Methyl β-naphthalene ketone, methyl β-naphthyl ketone] — higher, 96% reduction
- mixture of hexahydro4,7-methanoinden-5-yl propionate and hexahydro-4,7-methanoinden-6-yl propionate [CYCLAPROP ™] — lower, 91% reduction
- COc1ccc2ccccc2c1 [β-Naphthyl methyl ether, β-naphthyl methyl ether] — lower, 92% reduction
